Assay results taken from PubChem BioAssay AID1996.
Converted amounts (≈) assume the structure as drawn.

conditions: buffer; pH 7.4; 200.0 µM

Which solubility kinetic does the source give for `CC(=O)Nc1cccc(NC(=O)CSc2nnc3ccccn23)c1` here?
Its solubility kinetic is over 51.2 µg/mL.

Which solubility kinetic does the source give for `COc1ccc(-c2noc(CSc3nc(N)cc(=O)[nH]3)n2)cc1` here?
Its solubility kinetic is 7.7 µg/mL (≈ 23.2 µM).

Which solubility kinetic does the source give for `O=C(OCC(=O)c1ccc(Cl)s1)c1cncc(Br)c1` here?
The solubility kinetic was 17.5 µg/mL (≈ 48.5 µM).

With `COc1cccc(/C=C/c2ccc3cccc(O)c3n2)c1` as the compound, how does the solubility kinetic read?
The solubility kinetic was 0.7 µg/mL (≈ 2.52 µM).

With `NC(=O)C1CCCN(C(=O)CNC(=O)C23CC4CC(CC(C4)C2)C3)C1` (stereo not drawn) as the compound, how does the solubility kinetic read?
Its solubility kinetic is 38.3 µg/mL (≈ 110 µM).

For `Cc1cc(C)nc(SC(C)CNS(=O)(=O)c2ccccc2)n1` (stereo not drawn), which solubility kinetic is on record?
Its solubility kinetic is 45.9 µg/mL (≈ 136 µM).

Which solubility kinetic does the source give for `O=c1[nH]cccc1-c1nc2ccccc2n1Cc1cccc(Cl)c1` here?
Its solubility kinetic is 1.4 µg/mL (≈ 4.17 µM).

Which solubility kinetic does the source give for `Nn1c(SCC(=O)Nc2ccc3c(c2)OCO3)nncc1=O` here?
Its solubility kinetic is over 48.2 µg/mL.

With `COc1ccc(Cn2c(C)nc3ccc([N+](=O)[O-])cc3c2=O)cc1` as the compound, how does the solubility kinetic read?
Its solubility kinetic is 3.8 µg/mL (≈ 11.7 µM).

For `CCOC(=O)N1CCN(C(c2cccnc2)c2ccc3cccnc3c2O)CC1` (stereo not drawn), which solubility kinetic is on record?
The solubility kinetic was 28 µg/mL (≈ 71.3 µM).

Which solubility kinetic does the source give for `O=c1cc(CSCc2ccc(Cl)cc2)[nH]c(=O)[nH]1` here?
The solubility kinetic was 41.3 µg/mL (≈ 146 µM).

Which solubility kinetic does the source give for `O/N=C1\CCCc2c1nc(-c1ccccc1F)n2O` here?
Its solubility kinetic is over 39.2 µg/mL.

With `CCOc1ccc2oc(C(=O)NCC3CCCO3)c(C)c2c1` (stereo not drawn) as the compound, how does the solubility kinetic read?
The solubility kinetic was 39.6 µg/mL (≈ 131 µM).

With `Cc1[nH]c2ccccc2c1C(c1ccncc1)N1CCC(C)CC1` (stereo not drawn) as the compound, how does the solubility kinetic read?
Its solubility kinetic is over 47.9 µg/mL.

With `Cl.Clc1cccc(OCCN2CCCC2)c1` as the compound, how does the solubility kinetic read?
Its solubility kinetic is 37.2 µg/mL.

Which solubility kinetic does the source give for `O=C(CN1CCN(Cc2ccccc2)CC1)N/N=C/c1ccco1` here?
The solubility kinetic was over 49 µg/mL.

With `Cc1ccccc1OCC(=O)OCC(=O)N1CCc2ccccc21` as the compound, how does the solubility kinetic read?
The solubility kinetic was 1.8 µg/mL (≈ 5.53 µM).

With `O=C(NCc1nc(-c2ccc(C(F)(F)F)cc2)no1)Nc1ccc(F)cc1F` as the compound, how does the solubility kinetic read?
The solubility kinetic was 1.1 µg/mL (≈ 2.76 µM).

For `COc1ccccc1CCNC(=O)Cc1cccs1`, which solubility kinetic is on record?
The solubility kinetic was 37.5 µg/mL (≈ 136 µM).

Which solubility kinetic does the source give for `CCSc1ccc(C(=O)NCC(=O)O)cc1` here?
The solubility kinetic was over 35.9 µg/mL.

For `COc1ccccc1/C=C1\C(=O)Nc2ccccc21`, which solubility kinetic is on record?
Its solubility kinetic is 2 µg/mL (≈ 7.96 µM).

For `N/C(=N\OC(=O)c1ccc(Br)cc1)c1cccc([N+](=O)[O-])c1`, which solubility kinetic is on record?
Its solubility kinetic is 0.8 µg/mL (≈ 2.2 µM).

With `Cc1ccccc1S(=O)(=O)Nc1ncnc2sccc12` as the compound, how does the solubility kinetic read?
The solubility kinetic was over 45.8 µg/mL.

Which solubility kinetic does the source give for `COC(=O)c1c(C)oc(C)c1S(=O)(=O)N1CCOCC1` here?
The solubility kinetic was 40.9 µg/mL (≈ 135 µM).

For `C=CCNC(=O)N1CCCC(C(=O)c2cccc(OC(C)C)c2)C1` (stereo not drawn), which solubility kinetic is on record?
Its solubility kinetic is over 49.6 µg/mL.

For `COCc1[nH]c(=S)[nH]c(=O)c1C`, which solubility kinetic is on record?
The solubility kinetic was over 27.9 µg/mL.

For `CC(C)(C)OC(=O)N1CCN(C(=O)c2cccnc2Cl)CC1`, which solubility kinetic is on record?
Its solubility kinetic is over 48.9 µg/mL.

Which solubility kinetic does the source give for `CC(=O)N1CCN(CC(=O)Nc2cc([N+](=O)[O-])ccc2Cl)CC1` here?
Its solubility kinetic is 43.4 µg/mL (≈ 127 µM).

For `CCC(C)NC(=O)C(=O)NCC1CCCN1CC` (stereo not drawn), which solubility kinetic is on record?
Its solubility kinetic is 28.8 µg/mL (≈ 113 µM).

With `Cc1nc(NC(=O)C2CC2)sc1C(=O)Nc1cccc(Cl)c1` as the compound, how does the solubility kinetic read?
The solubility kinetic was 0.8 µg/mL (≈ 2.38 µM).

For `COc1ccc(NC(=S)NC(=O)C2CCCCC2)cc1`, which solubility kinetic is on record?
Its solubility kinetic is under 0.3 µg/mL.

Which solubility kinetic does the source give for `Clc1cnc(Nc2cccnc2)c(Cl)c1` here?
The solubility kinetic was 33.8 µg/mL (≈ 141 µM).

For `Cc1cc(Cl)ccc1NC(=O)C1COc2ccccc2O1` (stereo not drawn), which solubility kinetic is on record?
Its solubility kinetic is 18.1 µg/mL (≈ 59.6 µM).

With `Cc1cccc(N2CCN(C(=O)/C=C/c3cccs3)CC2C)c1` (stereo not drawn) as the compound, how does the solubility kinetic read?
The solubility kinetic was 22.8 µg/mL (≈ 69.8 µM).

Which solubility kinetic does the source give for `COc1ccccc1CN(C)C(=O)c1ccc(S(=O)(=O)Nc2c(C)n(C)n(-c3ccccc3)c2=O)cc1` here?
Its solubility kinetic is over 78.1 µg/mL.

With `O=C(Nc1c[nH]c(=O)[nH]c1=O)c1ccccc1Br` as the compound, how does the solubility kinetic read?
Its solubility kinetic is over 46.5 µg/mL.

With `O=C(CCCn1c(=O)oc2ccccc21)Nc1ccccc1` as the compound, how does the solubility kinetic read?
The solubility kinetic was 42.2 µg/mL (≈ 142 µM).

Which solubility kinetic does the source give for `COc1ccc(S(=O)(=O)N2CCOCC2)cc1NS(=O)(=O)c1ccc(F)c(F)c1` here?
Its solubility kinetic is over 67.3 µg/mL.

For `Cc1ccc2c(CN3CCC(C(N)=O)CC3)cc(=O)oc2c1C`, which solubility kinetic is on record?
The solubility kinetic was 46.2 µg/mL (≈ 147 µM).

For `O=C(c1ccsc1)N1CCCC(Nc2ccc(F)c(F)c2)C1` (stereo not drawn), which solubility kinetic is on record?
The solubility kinetic was 44.5 µg/mL (≈ 138 µM).

With `O=C(Nc1ccccc1)c1cccc(=O)o1` as the compound, how does the solubility kinetic read?
The solubility kinetic was over 32.3 µg/mL.

With `O=C1CSC(=Nc2cccc(C(=O)O)c2)N1` as the compound, how does the solubility kinetic read?
Its solubility kinetic is over 35.4 µg/mL.

With `Cc1cc(C)nc(SCc2cn3c(C)cc(C)nc3n2)n1` as the compound, how does the solubility kinetic read?
The solubility kinetic was over 44.9 µg/mL.

With `Cc1c(Cl)cccc1NC(=S)NC(=O)c1cncc(Br)c1` as the compound, how does the solubility kinetic read?
The solubility kinetic was 5.1 µg/mL (≈ 13.3 µM).

Which solubility kinetic does the source give for `COc1cccc(Oc2nc(-c3ccccc3O)nc3ccccc23)c1` here?
The solubility kinetic was under 0.4 µg/mL.

For `COc1ccc(C(=O)/C=C/c2ccc(N(C)C)cc2)c(OC)c1`, which solubility kinetic is on record?
Its solubility kinetic is 3.2 µg/mL (≈ 10.3 µM).

With `CC(=O)c1sc(=S)n(Cc2ccccc2)c1C` as the compound, how does the solubility kinetic read?
The solubility kinetic was 38 µg/mL (≈ 144 µM).

Which solubility kinetic does the source give for `CC1CCc2sc3ncnc(N4CCN(C)CC4)c3c2C1` (stereo not drawn) here?
Its solubility kinetic is over 45.4 µg/mL.
